Data published in patent US20040052728A1, “Diagnostic imaging” (priority 1998, published 2004).
Read-outs that look alike come from different tables or passages of the source.

What was measured:
myocardium [1] = test: Closed chest ultrasound imaging of the heart with contrast agent, then adenosine bolus; type: in vivo, dog; details: Preparation 1 contrast agent
Text: The procedure of Example 1 was repeated with a closed chest dog, using a parasternal transducer position. The resulting ultrasound images were less homogeneous as regards signal intensities than the images obtained in Example 1, as a result of acoustic effects of the intact chest wall.
(§1) In order to analyse ultrasound images obtained according to the procedure of Example 1, the images were first converted from video images into grey level digital images (640×480 pixels) using a frame grabber. A fixed central region (399×399 pixels) covering the image sector was selected for further processing. The thus-obtained images were decimated by averaging 3×3 pixels into new images (133×133 pixels) and were then median filtered using a sliding region (5×5 pixels).
(§2) A single image obtained just before onset of adenosine-induced vasodilatation was selected as a geometrical template to which all other images were automatically adjusted to maximum pixel correlation by an affine transformation (6 degrees of freedom). Only pixels within a region of interest in the template image encompassing the left ventricle and its myocardium were used for calculating maximum pairwise pixel grey level correlation.
6-10 baseline images from before the appearance of adenosine effects were averaged to give a representative baseline image, and a similar number of images at peak adenosine effect were likewise averaged. […]

[2] = tested on: left circumflex perfusion beds; details: contrast agent perfluoropropane-enhanced sonicated dextrose albumin i.v., cited from earlier work
myocardium [3] = test: Open chest ultrasound imaging of the heart with contrast agent, then adenosine bolus; type: in vivo, dog
Procedure: A midline sternotomy was performed on an anaesthetised 20 kg mongrel dog and the anterior pericardium was removed. A short axis view of the heart was imaged with an ATL HDI-3000 scanner, using a P5-3 transducer in harmonic mode; a 30 mm silicone rubber spacer having low ultrasound attenuation was placed between the transducer and the anterior surface of the heart. ECG gating was used so as to acquire one image in each end-systole.
as §1, §2
(§3) 6-10 baseline images from before the appearance of adenosine effects were averaged to give a representative baseline image, and a similar number of images at peak adenosine effect were likewise averaged. The two thus-obtained averaged images were then subtracted and the difference was colour coded. […] The colour coding was selected to represent the range −4 dB (blue colour) to +4 dB (red colour).
Images were acquired as described in Example 1 and processed according to the method of Example 4. The normal myocardium was depicted with a homogeneous colour indicating a signal increase of some 3-4 dB.

myocardium [4] = test: Imaging in man: pulse inversion imaging of the heart with contrast agent and adenosine infusion; type: in vivo, human; details: adenosine i.v. infusion 140 μg/kg/min, apical 2-chamber view, Preparation 1 contrast agent
Procedure: A patient with an angiographically verified 80% left anterior descending arterial stenosis was given an intravenous injection of 1 ml of a perfluorobutane microbubble suspension prepared as in Preparation 1. The heart was imaged with an ATL HDI-5000 scanner and a P4-2 transducer, using ECG-gated (every second end-systole) pulse inversion imaging; the mechanical index was 0.6. The heart was imaged from an apical 2-chamber view. […] Intravenous infusion of adenosine at a rate of 140 μg/kg/min was then started, and a sequence of 30 images, of which 10 were before the onset of adenosine effects in the heart, were stored in digital format. The images were processed as in Example 4, but without the initial video grabbing steps.

myocardium [5] = test: Open chest ultrasound imaging with partial coronary occlusion (snare on left anterior descending coronary artery); type: in vivo, dog; details: for change in contrast effect in the myocardium, except in areas supplied by the stenotic artery: one minute after start of infusion
Procedure: The procedure of Example 1 was repeated except that an occluding snare was placed around the major branch of the left anterior descending coronary artery. An ultrasound transit time flow meter was applied to the same artery and the snare was adjusted to give a stable reduction in blood flow to about 75% of the normal value. Contrast agent and adenosine injections were then administered as in Example 1.
as §1, §2, §3
Images were acquired as described in Example 3 and processed according to the method of Example 4.
The procedure of Example 3 is repeated except that the bolus injection of adenosine is replaced with a pumpcontrolled infusion of dobutamine at a rate of 15 μg/kg/min.
The procedure of Example 3 is repeated except that the bolus injection of adenosine is replaced with a pumpcontrolled infusion of arbutamine at a rate of 0.4 μg/kg/min.

[6] = in vivo; cited from earlier work
[7] = adenosine 150 μg/kg i.v. bolus after Preparation 1 contrast agent
[8] = blood flow reduced to about 75% of normal, adenosine 150 μg/kg i.v. bolus, Preparation 1 contrast agent
[9] = following injection of adenosine, processed difference image

Nc1ncnc2c1ncn2[C@@H]1O[C@H](CO)[C@@H](O)[C@H]1O [Adenosine, adenosine]
change in echo intensities after injection of adenosine (myocardium [1]; parasternal transducer position): general increase in echo intensities comparable to that observed in Example 1
signal increase in normal myocardium (processed difference image) (myocardium [1]; peak adenosine effect versus baseline): 3-4 dB
ratio of peak myocardial videointensities, adenosine stress compared to resting ([2]; stenoses with diameter in excess of 70%): 0.8-1.4
ratio of peak myocardial videointensities, adenosine stress compared to resting ([2]; stenoses with diameter not exceeding 50%): 1.8-2.1
change in echo intensity from the myocardium (myocardium [3]; [7]): distinct general increase in echo intensity
duration of the increase in echo intensity (myocardium [3]; [7]): ~15 s
time from adenosine injection to increase in echo intensity from the myocardium (myocardium [3]; [7]): 7 s
signal increase in normal myocardium (processed difference image) (myocardium [3]; open chest, peak adenosine effect versus baseline, Preparation 1 contrast agent): 3-4 dB
decrease in signal intensity in myocardial regions supplied by the stenotic artery (myocardium [4]): 1-2 dB
increase in signal intensity in normal regions of the myocardium (myocardium [4]): 2-3 dB
change in contrast effect in all other areas of the myocardium (myocardium [5]; [8]): increase
change in contrast effect in tissue areas affected by the occlusion (myocardium [5]; [8]): slight decrease in contrast effect
decrease in signal intensity in myocardial tissue affected by the simulated coronary stenosis (myocardium [5]; [9]): 1-3 dB
increase in signal intensity in normal myocardium (myocardium [5]; [9]): 2-3 dB
blood pool half-life [6]: only a few seconds

Oc1ccc(CCCCNC[C@H](O)c2ccc(O)c(O)c2)cc1 [arbutamine]
change in contrast effect in the myocardium, except in areas supplied by the stenotic artery (myocardium [5]; arbutamine infusion 0.4 μg/kg/min, Preparation 1 contrast agent): increase in contrast effect

CC(CCc1ccc(O)cc1)NCCc1ccc(O)c(O)c1 (centres unmarked) [dobutamine]
change in contrast effect in the myocardium, except in areas supplied by the stenotic artery (myocardium [5]; dobutamine infusion 15 μg/kg/min, Preparation 1 contrast agent): increase in contrast effect
